Test results taken from article PMC3554599, “Hydrophobic analogues of rhodamine B and rhodamine 101: potent fluorescent probes of mitochondria in living C. elegans” (Beilstein Journal of Organic Chemistry, 2012).
Where two headings read alike, the source gives them in different places. Values belong to the compound of their own block, whether it stands above or below them.

Key:
[1] = tested on: mitochondria in living C. elegans; test: Confocal laser scanning microscopy of living adult C. elegans treated with fluorophores; assay type: in vivo; conditions: for bioaccumulation among the fluorophores examined: 100 pM or 1 nM, 20× objective; for selectivity of intracellular staining: living C. elegans; for time to observable fluorescence in some animals / time until most animals became fluorescent: living adult C. elegans
[2] = log D by fluorescence-based shake-flask method, octanol/phosphate buffer pH 7.4; assay type: physicochemical; conditions: for enhanced partitioning into octanol compared with aqueous buffer, relative to parent compound: methyl analogue vs parent rhodamine B / rhodamine 101; for logD: octanol/phosphate buffer (1:1), octanol/buffer pH 7.4, fluorescence-based shake-flask, 24 h, 25 °C
Procedure: Values of log D were measured by dissolution of solids in 1:1 octanol/phosphate buffer (4 mL total volume, 5 mM phosphate, pH 7.4) to provide 5 mM solutions of the fluorophore. Samples were shaken for 24 h at 25 °C to equilibrate. […] Aliquots of these fractions were diluted in octanol (derived from the top fraction) or buffer (derived bottom fraction) to generate stock solutions (10×) appropriate for analysis. These stock solutions were further diluted 10-fold and analyzed in a solvent mixture comprising ethanol (80%), octanol (10%), and phosphate buffer (10%, pH 7.4). The ratio of fluorescence emission at λmax was used to calculate log D.

[3] = Quantum yield by the method of Williams in MeOH; assay type: physicochemical; conditions: relative to rhodamine B and rhodamine 6G
Procedure: (§1) The red-shifted spectra of HR101 10 compared with HRB 9 can be explained by greater delocalization of the lone pairs on nitrogen due to restricted rotation about C–N bonds conferred by the fused rings of 10. By using the method of Williams, the quantum yields of 9 and 10 were determined relative to rhodamine B (5) and rhodamine 6G (7, Figure 3, panels A and B), and the extinction coefficients of these compounds were quantified (Figure 3, panel C). The replacement of the carboxylate of rhodamine B (5) and rhodamine 101 (8) with a methyl group slightly red shifted the absorbance and emission spectra in methanol (5 nm and 8 to 9 nm, respectively). […] Additionally, a modest reduction in quantum yield of ~0.3 for both fluorophores was observed.
(§2) Figure 3 Linear regression used to determine spectroscopic parameters of HRB 9 and HR101 10 in MeOH. Panels A and B: Determination of quantum yields relative to rhodamine B (5) and rhodamine 6G (7). Panel C: Quantification of molar extinction coefficients. TEXT PRINTED IN THE PICTURE: (A) RhB 5: Φ = 0.69 | (A) Rh6G 7: Φ = 0.93 | (B) HRB 9: Φ = 0.39 | (B) HR101 10: Φ = 0.60 | (C) HRB 9: ε555 nm = 83,000 M^-1 cm^-1 | (C) HR101 10: ε576 nm = 107,000 M^-1 cm^-1

[4] = Molar extinction coefficient by linear regression of absorbance; assay type: physicochemical
Procedure: as §1, §2

C. elegans = conditions: N2, C. elegans, in vivo, 2 h
[5] = octanol/neutral buffer, cited from earlier work
[6] = MeOH; cited from earlier work
[7] = design: method as in PMID 15571431; conditions: 545 nm in ethanol; cited from earlier work

Compound: CCOC(=O)c1ccccc1-c1c2ccc(=[N+](CC)CC)cc-2oc2cc(N(CC)CC)ccc12 [Basic Violet 11 (6), basic violet 11, reference compound]
- bioaccumulation among the fluorophores examined ([1]; 2 h): highest bioaccumulation
- selectivity of intracellular staining ([1]; 2 h): low selectivity

- enhanced partitioning into octanol compared with aqueous buffer, relative to parent compound [2]: ≥ 10 fold
- logD [2]: 6.2
- quantum yield Φ [3]: 0.60
- molar extinction coefficient ε576 nm ([4]; 576 nm in MeOH): 107,000 M^-1 cm^-1
Compound: Cc1ccccc1C1=c2cc3c4c(c2Oc2c1cc1c5c2CCCN5CCC1)CCC[N+]=4CCC3 [HR101 10, 16-(2-Methylphenyl)-3-oxa-9,23-diazaheptacyclo[17.7.1.1^{5,9}.0^{2,17}.0^{4,15}.0^{23,27}.0^{13,28}]octacosa-1(27),2(17),4,9(28),13,15,18-heptaen-9-ium]
- bioaccumulation among the fluorophores examined ([1]; 2 h): highest bioaccumulation
- selectivity of intracellular staining ([1]; 2 h): most specific mitochondrial stains
- time to observable fluorescence in some animals [1]: ≤ 30 min
- time until most animals became fluorescent [1]: ≤ 2 h
- concentration conferring some toxicity (C. elegans): ≥ 1000 µM

- enhanced partitioning into octanol compared with aqueous buffer, relative to parent compound [2]: ≥ 10 fold
- logD [2]: 5.9
- quantum yield Φ [3]: 0.39
- molar extinction coefficient ε555 nm ([4]; 555 nm in methanol): 83,000 M^-1 cm^-1
Compound: CCN(CC)c1ccc2c(-c3ccccc3C)c3ccc(=[N+](CC)CC)cc-3oc2c1 [HRB 9, 6-(Diethylamino)-N,N-diethyl-9-(2-methylphenyl)-3H-xanthen-3-imine]
- bioaccumulation among the fluorophores examined ([1]; 2 h): highest bioaccumulation
- selectivity of intracellular staining ([1]; 2 h): most specific mitochondrial stains
- time to observable fluorescence in some animals [1]: ≤ 30 min
- time until most animals became fluorescent [1]: ≤ 2 h
- concentration conferring some toxicity (C. elegans): ≥ 1000 µM

Compound: CC/N=c1\cc2oc3cc(NCC)c(C)cc3c(-c3ccccc3C(=O)OCC)c-2cc1C [Rhodamine 6G (7), rhodamine 6G]
- selectivity of intracellular staining ([1]; 2 h): most specific mitochondrial stains
- log D octanol/buffer ([5]; ref 37): 2.1 [37]
- quantum yield Φ (standard) [6]: 0.93

- logD [2]: 5.2
Compound: O=C([O-])c1ccccc1C1=c2cc3c4c(c2Oc2c1cc1c5c2CCCN5CCC1)CCC[N+]=4CCC3 [Rhodamine 101 (8), rhodamine 101]
- penetration into germline, cells and tissues ([1]; 60× objective, 2 h, rhodamine 101 at 100-fold higher concentration than HRB 9 and HR101 10): did not penetrate into the germline

Compound: COC(=O)c1ccccc1-c1c2ccc(=N)cc-2oc2cc(N)ccc12 [Rhodamine 123 (4), rhodamine 123]
- log D octanol/buffer ([5]; listed as rhodamine 123 (4)): −0.62
- log D octanol/buffer ([5]; ref 9): −0.6
- log D octanol/buffer ([5]; ref 37): 0.5

Compound: rhodamine B [Rhodamine B (5)]
- log D octanol/buffer ([5]; ref 46): 2.3 [46]
- quantum yield Φ (standard) [6]: 0.69
- molar extinction coefficient [7]: 106,000 M^−1 cm^−1
